Test results from US8163509B2, “Biological markers predictive of anti-cancer response to insulin-like growth factor-1 receptor kinase inhibitors” (The Regents of the University of Colorado, A Body Corporate, priority 2008, dated 2012).

Target: T1, IGF1R (Homo sapiens, UniProt P08069)
T1 construct: endogenous in cells; host or cells: HT29 and HCT116 CRC cell lines
Test: Meso Scale Discovery (MSD) assay of phosphorylated IGF1R
Assay type: cell-based
Settings: HT29 and HCT116; 72 h; PQIP 0.4 μmol/L, SN38 0.004 μmol/L, Oxaliplatin 1.0 μmol/L
Experimental: Detection of IGF1R using Meso Scale Discovery assays (MSD): HT29 and HCT116 CRC cell lines were seeded into 6-well plates, allowed to attach for 24 hours and exposed to PQIP and chemotherapy (SN38, or Oxaliplatin) alone or in combination for 72 h. Following exposure, cells were rinsed with PBS and scraped into RIPA lysis buffer containing protease inhibitors, EDTA, NaF, and sodium orthovanadate. Total protein was quantified using the BioRad Dc Protein Assay (BioRad, Hercules, Calif.). Fifty micrograms of protein in 25 μL was added per well for MSD detection of phosphorylated IGF-1R according to manufacturer's instructions (Meso Scale Discovery, Gaithersburg, Md.).
Cells were exposed to PQIP (0.4 μmol/L) and chemotherapy (SN38 0.004 μmol/L, or Oxaliplatin 1.0 μmol/L) alone or in combination for 72 h. Protein was extracted and analyzed for phospho/total IGF1R levels using a Meso Scale Discovery (MSD; Gaithersburg, Md. 20877) assay.

T1 sequence (P08069 31-1367): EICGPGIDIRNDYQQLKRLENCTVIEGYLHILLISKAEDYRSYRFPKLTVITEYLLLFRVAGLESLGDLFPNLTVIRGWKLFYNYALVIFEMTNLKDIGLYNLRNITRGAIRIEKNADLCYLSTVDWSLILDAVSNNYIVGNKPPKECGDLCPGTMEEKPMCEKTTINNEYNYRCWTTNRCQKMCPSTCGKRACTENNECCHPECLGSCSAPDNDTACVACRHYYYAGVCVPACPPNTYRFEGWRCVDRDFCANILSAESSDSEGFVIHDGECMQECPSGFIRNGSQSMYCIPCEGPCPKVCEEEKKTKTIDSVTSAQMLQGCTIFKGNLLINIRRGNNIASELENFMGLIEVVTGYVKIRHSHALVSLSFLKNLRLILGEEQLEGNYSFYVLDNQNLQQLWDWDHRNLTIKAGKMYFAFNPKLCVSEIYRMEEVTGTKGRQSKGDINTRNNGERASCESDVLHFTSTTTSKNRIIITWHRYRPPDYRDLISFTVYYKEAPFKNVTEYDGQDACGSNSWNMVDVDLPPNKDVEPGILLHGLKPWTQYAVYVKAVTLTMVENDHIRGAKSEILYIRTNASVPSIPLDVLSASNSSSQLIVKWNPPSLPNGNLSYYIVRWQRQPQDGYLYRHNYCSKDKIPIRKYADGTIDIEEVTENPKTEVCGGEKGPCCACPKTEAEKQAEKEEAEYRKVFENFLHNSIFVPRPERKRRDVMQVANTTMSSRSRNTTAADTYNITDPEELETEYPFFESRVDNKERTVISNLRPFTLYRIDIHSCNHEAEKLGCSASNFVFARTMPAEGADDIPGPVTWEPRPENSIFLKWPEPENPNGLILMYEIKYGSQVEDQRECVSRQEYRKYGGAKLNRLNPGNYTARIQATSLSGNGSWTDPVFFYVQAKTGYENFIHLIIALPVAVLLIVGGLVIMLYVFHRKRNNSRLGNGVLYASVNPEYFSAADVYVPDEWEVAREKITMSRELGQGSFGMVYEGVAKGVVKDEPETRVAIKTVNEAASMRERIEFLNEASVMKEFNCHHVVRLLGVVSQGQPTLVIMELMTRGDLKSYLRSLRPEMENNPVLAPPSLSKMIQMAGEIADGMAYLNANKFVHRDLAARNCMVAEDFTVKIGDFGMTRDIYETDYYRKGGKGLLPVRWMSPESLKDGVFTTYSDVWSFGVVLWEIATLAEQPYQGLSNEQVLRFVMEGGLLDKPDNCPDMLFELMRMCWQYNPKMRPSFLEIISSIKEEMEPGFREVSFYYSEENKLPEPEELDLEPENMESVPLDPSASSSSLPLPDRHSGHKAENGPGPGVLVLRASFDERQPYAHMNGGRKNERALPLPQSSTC

Row | Compound | effect on phosphorylated IGF1R, agent alone
1 | CCc1c2c(nc3ccc(O)cc13)-c1cc3c(c(=O)n1C2)COC(=O)[C@]3(O)CC [SN38, 7-Ethyl-10-hydroxy-camptothecin, reference compound] | no significant effect
2 | O=C1[O][Pt]2([NH][C@@H]3CCCC[C@H]3[NH]2)[O]C1=O [Oxaliplatin, reference compound] | no significant effect
